The test system of test [1] is Pyrenophora teres. Briefly: Activity against net blotch of barley caused by Pyrenophora teres, protective application. It is filed as in vivo, Pyrenophora [syn. Drechslera] teres on barley. The settings on record: barley seedlings, rated after 6 days. The procedure: (§1) The active compounds were separately or jointly prepared as a stock solution comprising 25 mg of active compound which was made up to 10 ml using a mixture of acetone and/or DMSO and the emulsifier Uniperol® EL (wetting agent having emulsifying and dispersing action based on ethoxylated alkylphenols) in a volume ratio of solvent/emulsifier of 99 to 1. The mixture was then made up with water to 100 ml. This stock solution was diluted with the solvent/emulsifier/water mixture described to the concentration of active compounds stated below.
(§2) The visually determined percentages of infected leaf areas were converted into efficacies in % of the untreated control:
The efficacy (E) is calculated as follows using Abbot's formula: E=(1−α/β)·100 α corresponds to the fungicidal infection of the treated plants in % and β corresponds to the fungicidal infection of the untreated (control) plants in %
An efficacy of 0 means that the infection level of the treated plants corresponds to that of the untreated control plants; an efficacy of 100 means that the treated plants were not infected.
Leaves of potted barley seedlings were sprayed to runoff point with an aqueous suspension having the concentration of active compound stated below. After 5 days, the test plants were inoculated with an aqueous spore suspension of Pyrenophora [syn. Drechslera] teres, the net blotch pathogen. The test plants were then placed in a greenhouse at temperatures between 20 and 24° C. and 95 to 100% relative atmospheric humidity. After 6 days, the extent of the disease development was determined visually in % infection of the entire leaf area.

In test [2] the test system is Alternaria solani. Briefly: Activity against early blight of tomato caused by Alternaria solani. It is filed as in vivo, Alternaria solani on tomato. The note with it: 4 ppm; tomato cultivar Goldene Königin, sprayed 1 day before infection, rated after 5 days. The procedure:
as §1, §2
The efficacy (E) is calculated as follows using Abbot's formula: E=(1−α/β)·100 α corresponds to the fungicidal infection of the treated plants in % and β corresponds to the fungicidal infection of the untreated (control) plants in % […]
Leaves of potted plants of the cultivar “Goldene Königin” were sprayed to runoff point with an aqueous suspension having the concentration of active compound stated below. […] After 5 days, the disease on the untreated but infected control plants had developed to such an extent that the infection could be determined visually in %.

Test [3] concerns Botrytis cinerea. As to the kind of experiment: Activity against the gray mold pathogen Botrytis cinerea in the microtiter test. It is filed as cell-based. The settings on record: 1 ppm; microtiter plate, 405 nm, day 7 after inoculation. The text has this:
For the microtiter tests, the active compounds were formulated separately as a stock solution having a concentration of 10 000 ppm in DMSO.
In the microtiter tests, the measured parameters were offset with the growth of the active-compound-free control variant and the fungus- and active-compound-free blank value, in order to determine the relative growth in % of the pathogens in the individual active compounds.
The stock solutions were mixed according to the ratio, pipetted into a microtiter plate (MTP) and diluted to the stated active compound concentration using a malt-based aqueous nutrient medium for fungi. An aqueous spore suspension of Botrytis cinerea was then added. The plates were placed in a water vapor-saturated chamber at temperatures of 18° C. Using an absorption photometer, the MTPs were measured at 405 nm on day 7 after the inoculation.

As for `CO/C=C(/C(=O)OC)c1ccccc1CO/N=C(C)/C=C/c1ccc(Cl)cc1` [enestroburin (I), methyl 2-{2-[3-(4-chlorophenyl)-1-methylallylideneaminooxymethyl]phenyl}-3-methoxyacrylate], the “Observed activity (%)” value in test [1] (63 ppm, sprayed 5 days before inoculation) is on record as 56%; in test [2], 22%; in test [3], 12%. As to `Cc1ccc(C(C)NC(=O)[C@@H](NC(=O)OC(C)C)C(C)C)cc1` (stereo partly drawn) [iprovalicarb (II-11), isopropyl [(1S)-2-methyl-1-(1-p-tolylethylcarbamoyl)propyl]carbamate], the “Observed activity (%)” value in test [2] amounted to 0%. For the compound “manganese ethylenebis(dithiocarbamate) (polymer) complex zinc salt [mancozeb (II-1)]”, the “Observed activity (%)” value was determined as 0% in test [1] (16 ppm, protective) and 22% in test [1] (250 ppm, protective). As for “zinc ammoniate ethylenebis(dithiocarbamate) [metiram (II-4)]”, the “Observed activity (%)” value in test [3] was 7%.

These data come from patent US20080076747A1, “Fungicidal Mixtures” (BASF AKTIENGESELLSCHAFT, priority 2004, published 2008).
